Data set [1] is described as follows: Cardiovascular activity in spontaneously beating rat right atria assessed as change in amplitude of contraction at 80 uM by microdynameter relative to control. The format is functional. The settings on record: Right cardiac atrium.
A short description of data set [2]: Cardiovascular activity in spontaneously beating rat right atria assessed as change in rate of contraction at 80 uM by microdynameter relative to control. The format is functional. As to conditions: Right cardiac atrium.
Data set [3] is described as follows: Solubility in water. As to conditions: buffer. The format is physicochemical.

This note sets out measurements from ChEMBL document CHEMBL1150735, “Phytochemical and pharmacological investigation of the cardioactive constituents of the leaf of Dysoxylum lenticellare” (J Nat Prod, 1987).

Turning to `COc1cc2c(cc1OC)[C@@H](CCc1ccc3c(c1)OCO3)N(C)CC2`, the Activity in data set [1] is 11.8%; in data set [2] it was -6.4%.
For `COc1cc2c(cc1OC)-c1cc3c(cc1CCCN(C)CC2)OCO3` [DYSAZECINE], the solubility entry in data set [3] is listed as “Insoluble”.
As for `CO[C@H]1CC=C2CCN3CCC(O)c4cc5c(cc4[C@]23C1)OCO5` (stereo partly drawn), the Activity is 11.5% in data set [1] and -6% in data set [2].
For the compound `COc1ccc(CC[C@@H]2c3cc(OC)c(OC)cc3CCN2C)cc1OC`, the values for the Activity in data set [1] and in data set [2] were 16.3% and -6.7%, respectively.
`C=C1C[C@]23CC[C@@H]4C(C)(C)CCC[C@@]4(C)[C@@H]2CC[C@H]1C3` [PHYLLOCLADENE]: in data set [3], the solubility entry is “Insoluble”.
